# According to patent publication US9364448B2, “Nitisinone for treatment of oculocutaneous/ocular albinism and for increasing pigmentation” (The United States of America, as represented by the …, priority 2010, dated 2016):
# Experiments:
# [1] = test system: male Alpk:ApfCD-1 albino mice; details: cited from earlier work
# [2] = test system: C57BL/6J-Tyr^c-h/c-h mice (OCA1b model); assay: Transmission electron microscopy of iris, RPE and choroid, Tyr^c-h/c-h mice; type: in vivo, mouse; details: treated vs controls, statistically significant in all three tissues, FIG. 4
# Description: Transmission Electron Microscopy. Eyes from drug and vehicle-treated mice were dissected and divided into anterior and posterior segments (n=2 eyes from 2 separate mice in each group). The iris and posterior part (choroid, RPE and retina) of the eyes were removed and fixed in 2% glutaraldehyde and 2% paraformaldehyde in 0.1 M sodium phosphate buffer (PB), pH 7.4 for about 12 hours at room temperature (RT). After a wash with rinsing buffer (RB, 4% sucrose and 0.15 mM CaCl2 in PB), pH 7.4 at 4° C., tissues were postfixed in 1% OsO4 in 0.1 M PB, pH 7.4 for 1 hour. After rinsing and dehydration, tissues were embedded in Durcupan resin for 72 hours at 60° C. One micron semi-sections were used for tissue orientation. About 70-90 nm ultrasections were also collected in 200 mesh grids and counterstained with 5% uranyl acetate and 0.3% lead citrate. […]
# In order to quantitate the effect of NTBC on pigmentation in ocular tissues and to assess for sub-clinical changes in ocular pigmentation, transmission electron microscopy (TEM) of iris, retinal pigment epithelium (RPE), and choroid of treated and control mice (n=4 eyes from 2 mice for each group) was performed. […]
# [3] = test system: C57BL/6J-Tyr^c-h/c-h mice (OCA1b model); assay: Coat and ocular pigmentation, clinical examination and electron microscopy, Tyr^c-h/c-h mice; type: in vivo, mouse
# Description: Animal Husbandry and Clinical Examination. C57BL/6J mice (Stock #000664), C57BL/6JTyr^c-2J/c-2J mice (Stock #000058, MGI ID#1855985), and C57BL/6Tyr^c-h/c-h (Stock #000104, MGI ID#1855979) were obtained from the Jackson Laboratory (Bar Harbor, Me.). Mice were housed according to the institutional Animal Review Board standards with a 14 hour light/10 hour dark cycle. These studies conformed to the principles for laboratory animal research outlined by the Animal Welfare Act (NIH/HHS) and the ARVO Statement for the Use of Animals in Ophthalmic and Vision Research and were approved by the Institutional Animal Care and Use Committee of the National Eye Institute. Clinical examination and imaging of the anterior segment of mice were performed on gently-restrained, awake mice using a Haag-Streit BQ slit lamp and Imaging Module IM900® software (Haag-Streit, Inc., Mason, Ohio). Clinical examination of the posterior segment was performed on gently restrained, awake mice after dilation with one drop of 1% tropicamide (Alcon Laboratories, Inc., Fort Worth, Tex.) using an indirect ophthalmoscope (Keeler, Windsor, Berkshire, UK) with a 90D condensing lens (Volk, Mentor, Ohio). Fundus images were obtained on mice sedated with intraperitoneally injected […] diluted in normal saline. Images were obtained using a Nikon D.90 digital SLR camera with a Nikon 85 mm f/2.8D micro AF-S ED lens mounted to a custom-made aluminum stand, using a 5 cm long Hopkins rigid otoscope coupled to a Xenon Nova light source (175 watt) and fiberoptic cable (Karl Storz, Tuttlingen, Germany). Mice were euthanized with carbon dioxide according to institutional guidelines.
# (§1) Drug Dosing and Monitoring.
# (§2) Using the same protocol as described above, baseline plasma tyrosine, coat color (gross and microscopic), anterior segment pigment, and posterior segment pigment was documented for each mouse prior to initiating experiments. […] These treated mice were compared to an age- and gender-matched cohort of C57BL/6J-Tyr^c-h/c-h mice over the same time period. Corneal irritation due to NTBC treatment was monitored daily. At the start of treatment, an area of hair was plucked/shaved from each mouse's back, which has the effect of stimulating new hair growth and possibly new pigment deposition in the hair shaft. At the end of four weeks' time, plasma tyrosine concentrations were assessed in both treated and control animals.
# Assessment of the effect treatment and the end of the experimental time period commences with photodocumentation of coat color, anterior segment pigment and posterior segment pigment of each mouse. The mice were sacrificed using standard CO2 euthanasia protocol. One eye from each mouse was submitted for light microscopy, while the other is prepared for electron microscopy. Liver and kidney tissues were collected and processed for light microscopy histology, to insure no pathology is associated with treatment. Additional blood samples were taken and frozen at the time of euthanasia, for possible future studies. Hair shafts in plucked and non-plucked areas were examined and photographed under light microscopy. Melanosome number and size was quantified in the retinal pigmented epithelial cells (RPE) and choroid of the posterior pole of both treated and untreated mice, in a masked fashion, as previously described above.
# [4] = test system: C57BL/6J-Tyr^c-h/c-h mice (OCA1b model); assay: Plasma tyrosine in NTBC-treated Tyr^c-h/c-h (Himalayan) mice; type: in vivo, mouse
# Description: as §1
# Plasma tyrosine was assayed from retro-orbital blood taken from mice at 1 week, and 4 weeks into treatment. Because the volume of blood that could be obtained from non-terminal bleeds was small, the plasma from 2-3 mice was pooled to make a single measurement. Plasma samples were frozen immediately after collection on dry ice. Samples ready for assay were gently thawed, diluted with an equal volume of loading buffer (0.2 M lithium citrate, pH 2.2), and filtered using Vivaspin 500 (3000 Da molecular weight cut-off, Sartorius Stedman Biotech, Goettingen, Germany) spun in a fixed angle centrifuge at about 14000×g for 60 minutes at a temperature of about 16-20° C. The supernatant was collected and tyrosine was quantitated on a Biochrom 30 […] (Biochrom, Ltd., Cambridge, UK) using the manufacturer's specifications.
# as §2
# [5] = Tyr^c-h/c-h (Himalayan) mice, 4 mg/kg orally every other day, one month
# [6] = Tyr^c-h/c-h mice, dose as in Example 1 (1 mg/kg every other day), one month
structure (smiles),measurement,setting,value
"O=C1CCCC(=O)C1C(=O)c1ccc(C(F)(F)F)cc1[N+](=O)[O-] [NTBC, 2-(-2-nitro-4 trifluoromethylbenzoyl)-1,3 cyclohexanedione]",Tolerated NTBC dose,"[1]; male Alpk:ApfCD-1 albino mice, age 3-6 weeks",up to 160 mg/kg/day
same,NTBC dose at which maximum plasma tyrosine concentrations were achieved,"[1]; mice, toxicologic studies (Lock et al.)",≤ 10 mg/kg
same,"Number of pigmented melanosomes in iris, choroid and RPE (TEM)",[2],clear increase
same,Fundus pigmentation,[3]; [5],grossly unchanged
same,Iris pigmentation,[3]; [5],some increase in iris pigmentation
same,"Coat pigmentation, treated vs control","[3]; Tyr^c-h/c-h mice, 4 mg/kg orally every other day, one month, shaved patch",observable increase in pigmentation
same,Phenotypic changes,[3]; [6],no phenotypic changes
same,RPE and choroidal melanosome pigment content (electron microscopy),"[3]; Tyr^c-h/c-h mice, treated vs control, preliminary data, FIG. 3",significant increase
same,Plasma tyrosine concentration,"[4]; Tyr^c-h (OCA1b model), 4 mg/kg q.o.d. oral, after 30 days, n = 4","305 ± 35 μM (n = 4,"
same,Increase in steady-state plasma tyrosine concentrations,"[4]; Tyr^c-h/c-h mice, 4 mg/kg orally every other day, vs control",~4 fold
same,"Plasma tyrosine concentrations, treated vs control",[4]; [6],not statistically significantly different
